Data published in the NIST ThermoML archive (doi:10.1016/j.fluid.2010.10.028).

Assay: xn = mol fraction of the nth substance listed
Conditions: Liquid, Vibrating tube method

CC(C)=O [acetone] + CCCCCCC
Conditions	mass density [kg/m3]
367.48 K, 69840 kPa, x1 = 0.8992	761.04
367.48 K, 74790 kPa, x1 = 0.7024	736.93
367.48 K, 74820 kPa, x1 = 0.4	764.83
367.48 K, 74820 kPa, x1 = 0.8992	764.83
367.48 K, 74880 kPa, x1 = 0.611	727.57
367.48 K, 79790 kPa, x1 = 0.4	768.48
367.48 K, 79790 kPa, x1 = 0.8992	768.48
367.48 K, 84760 kPa, x1 = 0.7024	743.91
367.48 K, 84780 kPa, x1 = 0.4	772.02
367.48 K, 84780 kPa, x1 = 0.8992	772.02
367.48 K, 84860 kPa, x1 = 0.611	734.42
367.48 K, 89740 kPa, x1 = 0.4	775.41
367.48 K, 89740 kPa, x1 = 0.8992	775.41
367.48 K, 89840 kPa, x1 = 0.611	737.67
367.48 K, 94810 kPa, x1 = 0.611	740.81
367.48 K, 99700 kPa, x1 = 0.4	781.91
367.48 K, 99700 kPa, x1 = 0.8992	781.91
367.48 K, 104670 kPa, x1 = 0.4	785.01
367.48 K, 104670 kPa, x1 = 0.8992	785.01
367.48 K, 104780 kPa, x1 = 0.611	746.78
367.48 K, 109630 kPa, x1 = 0.4	788.01
367.48 K, 109630 kPa, x1 = 0.8992	788.01
367.48 K, 114860 kPa, x1 = 0.611	752.48
367.48 K, 119560 kPa, x1 = 0.4	793.8
367.48 K, 119560 kPa, x1 = 0.8992	793.8
367.48 K, 119860 kPa, x1 = 0.611	755.19
367.48 K, 124530 kPa, x1 = 0.4	796.59
367.48 K, 124530 kPa, x1 = 0.8992	796.59
367.48 K, 129810 kPa, x1 = 0.4	799.46
367.48 K, 129810 kPa, x1 = 0.8992	799.46
367.49 K, 1150 kPa, x1 = 0.492	636.24
367.49 K, 1160 kPa, x1 = 0.801	665.36
367.49 K, 1370 kPa, x1 = 0.4	680.97
367.49 K, 1370 kPa, x1 = 0.8992	680.97
367.49 K, 4860 kPa, x1 = 0.801	672.53
367.49 K, 4870 kPa, x1 = 0.492	643.34
367.49 K, 4870 kPa, x1 = 0.611	651.91
367.49 K, 9840 kPa, x1 = 0.801	681.17
367.49 K, 9860 kPa, x1 = 0.492	651.84
367.49 K, 14860 kPa, x1 = 0.801	688.96
367.49 K, 14870 kPa, x1 = 0.492	659.41
367.49 K, 14880 kPa, x1 = 0.611	668.22
367.49 K, 19850 kPa, x1 = 0.801	696.01
367.49 K, 19860 kPa, x1 = 0.492	666.25
367.49 K, 24850 kPa, x1 = 0.801	702.51
367.49 K, 29860 kPa, x1 = 0.801	708.54
367.49 K, 34850 kPa, x1 = 0.492	683.77
367.49 K, 34860 kPa, x1 = 0.801	714.16
367.49 K, 34950 kPa, x1 = 0.4	729.18
367.49 K, 34950 kPa, x1 = 0.8992	729.18
367.49 K, 39860 kPa, x1 = 0.611	698.15
367.49 K, 44850 kPa, x1 = 0.492	693.62
367.49 K, 54840 kPa, x1 = 0.801	733.6
367.49 K, 59920 kPa, x1 = 0.611	716.21
367.49 K, 69900 kPa, x1 = 0.611	723.93
367.49 K, 79870 kPa, x1 = 0.611	731.07
367.49 K, 94730 kPa, x1 = 0.4	778.72
367.49 K, 94730 kPa, x1 = 0.8992	778.72
367.49 K, 99800 kPa, x1 = 0.611	743.84
367.49 K, 99840 kPa, x1 = 0.492	733.62
367.49 K, 104810 kPa, x1 = 0.492	736.49
367.49 K, 109800 kPa, x1 = 0.492	739.28
367.49 K, 109850 kPa, x1 = 0.611	749.68
367.49 K, 114600 kPa, x1 = 0.4	790.95
367.49 K, 114600 kPa, x1 = 0.8992	790.95
367.49 K, 114760 kPa, x1 = 0.492	742
367.49 K, 119830 kPa, x1 = 0.492	744.68
367.49 K, 124840 kPa, x1 = 0.492	747.26
367.49 K, 124860 kPa, x1 = 0.611	757.81
367.49 K, 129850 kPa, x1 = 0.492	749.77
367.49 K, 129850 kPa, x1 = 0.611	760.39
367.5 K, 24850 kPa, x1 = 0.492	672.52
367.5 K, 29850 kPa, x1 = 0.492	678.35
367.5 K, 39850 kPa, x1 = 0.801	719.44
367.5 K, 39860 kPa, x1 = 0.492	688.84
367.5 K, 44870 kPa, x1 = 0.801	724.43
367.5 K, 49850 kPa, x1 = 0.492	698.13
367.5 K, 49850 kPa, x1 = 0.801	729.14
367.5 K, 54850 kPa, x1 = 0.492	702.41
367.5 K, 59830 kPa, x1 = 0.801	737.85
367.5 K, 59870 kPa, x1 = 0.492	706.5
367.5 K, 64830 kPa, x1 = 0.492	710.35
367.5 K, 64930 kPa, x1 = 0.801	742.02
367.5 K, 69830 kPa, x1 = 0.492	714.07
367.5 K, 69910 kPa, x1 = 0.801	745.93
367.5 K, 74910 kPa, x1 = 0.801	749.67
367.5 K, 74930 kPa, x1 = 0.492	717.72
367.5 K, 79900 kPa, x1 = 0.801	753.27
367.5 K, 79920 kPa, x1 = 0.492	721.13
367.5 K, 84870 kPa, x1 = 0.801	756.74
367.5 K, 84880 kPa, x1 = 0.492	724.42
